Data reported in a compilation of properties of binary mixtures (doi:10.1039/c7cp04592a).

Assay: xn = mol fraction of the nth substance listed
Settings: 100 kPa

**Q.** What does the source list for `CC[NH3+].O=[N+]([O-])[O-]` + CC#N?
**A.** electrical conductivity (278 K, x1 = 0.1): 1.12 S/m; electrical conductivity (278 K, x1 = 0.2): 2.29 S/m; electrical conductivity (278 K, x1 = 0.5): 2.85 S/m; electrical conductivity (278 K, x1 = 0.7): 2 S/m; electrical conductivity (278 K, x1 = 0.9): 1.59 S/m; electrical conductivity (288 K, x1 = 0.1): 1.32 S/m; electrical conductivity (288 K, x1 = 0.2): 2.85 S/m; electrical conductivity (288 K, x1 = 0.3): 3.41 S/m; electrical conductivity (288 K, x1 = 0.5): 3.77 S/m; electrical conductivity (288 K, x1 = 0.9): 2.27 S/m; viscosity (288.06 K, x1 = 0.6): 13.65 mPa·s; viscosity (288.06 K, x1 = 0.8): 31.4 mPa·s; viscosity (288.06 K, x1 = 0.9): 40.5 mPa·s; viscosity (288.06 K, x1 = 1): 44.4 mPa·s; viscosity (288.07 K, x1 = 0.1): 0.815 mPa·s; viscosity (288.09 K, x1 = 0.2): 1.615 mPa·s; viscosity (288.09 K, x1 = 0.4): 5.47 mPa·s; viscosity (288.09 K, x1 = 0.5): 8.6 mPa·s; viscosity (293.06 K, x1 = 0.4): 4.9 mPa·s; viscosity (293.07 K, x1 = 0.2): 1.458 mPa·s; viscosity (293.08 K, x1 = 0.8): 26.09 mPa·s; viscosity (293.08 K, x1 = 0.9): 34 mPa·s; viscosity (293.08 K, x1 = 0.98): 36.9 mPa·s; viscosity (293.08 K, x1 = 1): 37.2 mPa·s; viscosity (293.09 K, x1 = 0.5): 7.45 mPa·s; viscosity (293.09 K, x1 = 0.6): 11.54 mPa·s; viscosity (293.1 K, x1 = 0.1): 0.754 mPa·s; viscosity (293.11 K, x1 = 0.7): 17.86 mPa·s; electrical conductivity (298 K, x1 = 0.1): 1.69 S/m; viscosity (298 K, x1 = 0.1): 0.685 mPa·s; electrical conductivity (298 K, x1 = 0.2): 3.96 S/m; viscosity (298 K, x1 = 0.2): 1.374 mPa·s; electrical conductivity (298 K, x1 = 0.3): 4.71 S/m; viscosity (298 K, x1 = 0.3): 2.451 mPa·s; viscosity (298 K, x1 = 0.4): 4.07 mPa·s; electrical conductivity (298 K, x1 = 0.5): 5 S/m; viscosity (298 K, x1 = 0.5): 6.37 mPa·s; viscosity (298 K, x1 = 0.6): 9.92 mPa·s; viscosity (298 K, x1 = 0.8): 20.97 mPa·s; electrical conductivity (298 K, x1 = 0.9): 3.14 S/m; viscosity (298 K, x1 = 0.9): 27.58 mPa·s; viscosity (298 K, x1 = 0.98): 32 mPa·s; electrical conductivity (298 K, x1 = 1): 2.26 S/m; viscosity (298 K, x1 = 1): 32.7 mPa·s; viscosity (298.05 K, x1 = 0.8): 21.52 mPa·s; viscosity (298.07 K, x1 = 1): 33.9 mPa·s; viscosity (298.08 K, x1 = 0.7): 15.22 mPa·s; viscosity (298.08 K, x1 = 0.9): 28.01 mPa·s; viscosity (298.11 K, x1 = 0.3): 2.463 mPa·s; viscosity (298.11 K, x1 = 0.4): 4.11 mPa·s; viscosity (298.11 K, x1 = 0.5): 6.46 mPa·s; viscosity (298.13 K, x1 = 0.6): 10.08 mPa·s; viscosity (298.14 K, x1 = 0.1): 0.698 mPa·s; viscosity (303.08 K, x1 = 0.7): 12.25 mPa·s; viscosity (303.09 K, x1 = 0.3): 2.396 mPa·s; viscosity (303.1 K, x1 = 0.1): 0.651 mPa·s; viscosity (303.11 K, x1 = 0.4): 4.16 mPa·s; viscosity (303.11 K, x1 = 0.5): 6.13 mPa·s; viscosity (303.11 K, x1 = 0.6): 8.74 mPa·s; viscosity (303.11 K, x1 = 0.9): 24.88 mPa·s; viscosity (303.12 K, x1 = 0.2): 1.16 mPa·s; viscosity (303.13 K, x1 = 1): 30.58 mPa·s; viscosity (303.14 K, x1 = 0.98): 29.95 mPa·s; viscosity (303.16 K, x1 = 0.8): 17.9 mPa·s; electrical conductivity (308 K, x1 = 0.1): 2.38 S/m; electrical conductivity (308 K, x1 = 0.3): 6.28 S/m; electrical conductivity (308 K, x1 = 0.5): 6.3 S/m; electrical conductivity (308 K, x1 = 0.9): 4.21 S/m; electrical conductivity (308 K, x1 = 1): 3.07 S/m; viscosity (308.11 K, x1 = 1): 26.5 mPa·s; viscosity (308.12 K, x1 = 0.4): 3.98 mPa·s; viscosity (308.13 K, x1 = 0.2): 1.074 mPa·s; viscosity (308.14 K, x1 = 0.98): 24.9 mPa·s; viscosity (308.15 K, x1 = 0.5): 5.77 mPa·s; viscosity (308.16 K, x1 = 0.1): 0.618 mPa·s

**Q.** With `CC#N` + CC[NH3+].O=[N+]([O-])[O-] as the compound, how does the viscosity (288.07 K, x2 = 0) read?
**A.** 0.408 mPa·s

**Q.** And the viscosity (293.1 K, x2 = 0)?
**A.** 0.371 mPa·s

**Q.** And the viscosity (298 K, x2 = 0)?
**A.** 0.35 mPa·s

**Q.** What about the viscosity (298.12 K, x2 = 0) of the same compound?
**A.** 0.352 mPa·s

**Q.** And the viscosity (303.13 K, x2 = 0)?
**A.** 0.321 mPa·s
